According to paper PMC7696666, “Epithelial Transfer of the Tyrosine Kinase Inhibitors Erlotinib, Gefitinib, Afatinib, Crizotinib, Sorafenib, Sunitinib, and Dasatinib: Implications for Clinical Resistance” (Cancers, 2020):

How the values were obtained:
[1] = design: method as in PMID 30544701; conditions: method not given, ref [45], cited from earlier work
[2] = design: method as in PMID 17429625; conditions: ref [32]; cited from earlier work
HT29 cells = test: Intracellular accumulation in HT29 colon cancer cells; assay type: in vitro ADME; conditions: after 24 h
Description: (§1) In order to get insight in the barrier role of the CaCo2 model system, we determined the intracellular accumulation of the TKISs at the end of the transport period, in normal monolayers of CaCo2 cells and in several other colon cancer cell lines. At the end of the transport period (both from the B->A and A->B incubations), cells were harvested and intracellular accumulation was determined.
In a different set of experiments, the CaCo2 cells were cultured in 6-wells plates as monolayers until semiconfluency. Two other colon cancer cell lines, WiDr and HT29, were cultured similarly. […]

WiDr cells = test: Growth inhibition of WiDr cells; assay type: cell-based; conditions: Homo sapiens, 72 hr exposure, read-out: Concentration leading to 50% growth inhibition
CaCo2 monolayer = test: CaCo2 Transwell transport (Papp, efflux ratio); assay type: in vitro ADME, human; conditions: 20 µM
Description: (§2) The Transwell system was developed using the wild type Caco-2 cell line (passage 15–25) cultured in Dulbecco’s […] medium (DMEM) at standard conditions of 37 °C, 5% CO2, and 100% humidity as previously reported. […] To ensure a controlled growth environment the plate was covered with Breathe-Easier cell culture foil during the incubation period. The integrity of the developed monolayer was assessed by TEER before administration of compound solutions and after the final sampling stage.
(§3) The initial concentration of the drug was verified from a 20 µL sample taken immediately from the donor compartment after drug administration (t = 0).
(§4) The permeability coefficient (Papp) represents a measure for the efficiency of transport and was calculated with the following equation: Papp=ΔQ/Δt×V/C0⋅A where ∆Q/∆t = the rate of increase in drug concentration (accumulative mass transport) in the receiver compartment over time (µM/s), V = volume in the receiver compartment (mL), C0 = the initial concentration of drug in the donor compartment (µM), and A = the membrane surface area (cm^2).
(§5) To take into account the slightly nonlinear transfer characteristics of each compound, the rate of increase in drug concentration was determined for each time period and the Papp was then calculated. The average Papp was then determined with units of cm/s × 10^−6 or µm/s.
(§6) The efflux ratio was calculated according to the equation: Efflux ratio=PappB→A/PappA→B.
(§7) Statistical significance was determined using a simple Student’s t-test where a p value of <0.05 was considered significant.

[3] = CaCo2 Transwell transport (Papp, efflux ratio); assay type: in vitro ADME, human; conditions: human
Description: as §2, §3, §4, §5, §6, §7

CaCo2 cells = test: Intracellular accumulation in CaCo2 Transwell cells at the end of the transport period; assay type: in vitro ADME, human; conditions: A->B incubation
Description: as §1
These cells were exposed to 20 μM of a TKI and were harvested after 2 h for determination of TKI concentration with LC-MS-MS. Values are means ± SEM for the number of experiments described in Figure 3, Figure 4, and Figure 5 and from three separate experiments for the monolayer CaCo2 and WiDr cells. […] A->B, mass transport from A to B; B->A, mass transport from B to A. For AFA, CRI, and DAS, no data in WiDr cells were available. […] The bar heights were not read.
In a different set of experiments, the CaCo2 cells were cultured in 6-wells plates as monolayers until semiconfluency. Two other colon cancer cell lines, WiDr and HT29, were cultured similarly. These cells were exposed for 2 h to various TKIs at concentrations varying from 50 nM to 20 µM). […] At the end of the incubation, cells were harvested, as described earlier, and extracted for drug analysis using LC-MS-MS as described above.

Intracellular accumulation in HT29 cells (HT29 cells): 0.14 pmol/μg protein
Efflux Ratio (Papp B–A / Papp A–B) (CaCo2 monolayer): 6.0
Total amount transferred apical to basolateral in 3 h (CaCo2 monolayer; A–B, 3 h): 499.3 pmol
Papp basolateral to apical (CaCo2 monolayer; B–A): 20.4 ×10⁻⁶ cm/s
Total amount transferred basolateral to apical in 3 h (CaCo2 monolayer; B–A, 3 h): 13,889 pmol
Efflux Ratio (Papp B–A / Papp A–B) (CaCo2 monolayer; listed as dasatinib): > 6
efflux ratio at 180 min, 20 µM ([3]; Caco-2, 20 µM, read-out: Efflux Ratio (Papp B–A / Papp A–B)): > 5
Papp A→B at 180 min, 20 µM ([3]; Caco-2, 20 µM, A–B, read-out: Papp (Apical Basolateral)): 3.4 ± 3.4 ×10⁻⁶ cm/s
Papp B→A at 180 min, 20 µM ([3]; Caco-2, 20 µM, B–A, read-out: Papp (Basolateral Apical)): 20.4 ± 13.5 ×10⁻⁶ cm/s
Intracellular accumulation at the end of the transfer period (A->B) (CaCo2 cells): 1.1 pmol/μg protein
SMILES: Cc1nc(Nc2ncc(C(=O)Nc3c(C)cccc3Cl)s2)cc(N2CCN(CCO)CC2)n1 [Dasatinib, dasatinib]
Log P [1]: 2.24
Log D (pH 5.5) ([1]; pH 5.5): −0.44
Log D (pH 7.5) ([1]; pH 7.5): 2.17
Bioavailability (animal) [2]: 14–27 [32] (animal) %
IC50 (WiDr cells): 60 nM
